Reference: patent US20210177812A1, “METHODS OF SUPPRESSING MYELOID-DERIVED SUPPRESSOR CELLS IN PATIENTS” (MediciNova, Inc., priority 2018, published 2021)
“Also recorded” adds a separate entry of the source. Where two headings read alike, the source gives them in different places.

Legend:
[1] = system: mouse model of glioma GL261; assay: Flow cytometry of MDSCs and T-cells in tumor, blood, spleen and bone marrow, mouse model of glioma GL261; assay type: in vivo; conditions: day 19; for monocytic MDSCs (M-MDSCs) in the tumor: ibudilast dosed 50 mg/kg i.p. daily from day 5 (AV1013 dose not given), vs vehicle
Experimental: (§1) Ibudilast was tested in vivo using the mouse model of glioma GL261. Cells were implanted on day 0 and then a 5-day engrafiment period was used to ensure that the treatment being tested was performing by inhibiting tumor growth and not engraftment. After 5 days the mice were intraperitoneally injected daily with ibudilast at 50 mg/kg in a vehicle consisting of PEG 400 and (2-hydroxypropyl)-p-cyclodextrin to enhance solubility with low toxicity or alternatively mice were treated with AV1013. At day 19 post injection, 3 mice from each group (ibudilast, AV1013 or vehicle) were sacrificed for flow cytometry analysis of MDSCs, T-cells, and NK cells in the tumor, blood, spleen, and bone marrow.

M-MDSCs = assay: MDSC generation in co-cultures with MIF inhibitors quantified by flow cytometry; assay type: cell-based, mouse; conditions: GL261/bone marrow co-culture
Experimental: (§2) MDSCs were prepared through a co-culture process illustrated in FIG. 1. Glioma cell line GL261 is cultured together with freshly isolated bone marrow for 4 days. During this 4-day process the glioma cell line initiates subsets of the naïve monocytes within the bone marrow to become both monocytic MDSCs (M-MDSCs) and granulocytic MDSCs (G-MDSCs) distinguished via flow cytometry using CD11b, Ly6C, and GR1. The GR1+ population was harvested at day 4 via magnetic bead separation. Once isolated the MDSCs were combined with freshly isolated splenic T-cells which were labeled with CFSE and activated using CD3/28 activation beads. The T-cell proliferation was then determined 3 days after being combined with MDSCs by measuring the fluorescence intensity of each CD3 T-cell after 3 days of being cultured with MDSCs (FIG. 2).

GL261 = assay: In vitro treatment of co-culture for 24 h, MCP-1 (CCL2) secretion; assay type: cell-based, mouse; conditions: co-culture treated 24 h in vitro
MDSCs = assay: T-cell proliferation in the presence of ibudilast-treated MDSCs from GL261/bone marrow co-culture; assay type: cell-based, mouse; conditions: CFSE-labeled CD3/28-activated splenic T-cells, 3 days with MDSCs; n=6 mice, 2 experiments, P=0.001
Experimental: as §2

MCP-1 = assay: Serum cytokine analysis at day 19 of treated GL261 mice; assay type: in vivo, mouse; conditions: day 19, 3 animals per group
Experimental: as §1

[2] = system: MIF/CD74 signaling pathway; assay: mRNA expression of CD45+ cells isolated from vehicle- and ibudilast-treated tumors; assay type: in vivo, mouse; conditions: n=3 per group
Experimental: as §1
Further analysis was conducted on the mRNA expression of CD45+ cells isolated from vehicle- and ibudilast-treated tumors.

[3] = in vivo, cited from earlier work
[4] = system: mouse model of glioma GL261; assay: Kaplan Meier survival analysis, mouse model of glioma GL261; assay type: in vivo; conditions: n=10 per group; vehicle median 19 days; Log Rank p=0.016
Experimental: as §1
The median survival times for vehicle-treated mice (n=10) was 19 days whereas ibudilast-treated mice (n=10) were undetermined at this point (Log Rank p=0.016, […]) (FIG. 14).

Row | Compound | monocytic MDSCs (M-MDSCs) in the tumor [1] | CD8 T-cells ([1]; 50 mg/kg i.p. daily, FIG. 7) | CD4 T-cells ([1]; 50 mg/kg i.p. daily, FIG. 8) | monocytic MDSCs (M-MDSCs) in the blood ([1]; blood, 50 mg/kg i.p. daily from day 5, 50 mg/kg) | monocytic MDSCs (M-MDSCs) in the marrow ([1]; bone marrow, 50 mg/kg i.p. daily from day 5, 50 mg/kg) | monocytic MDSCs (M-MDSCs) in the spleen ([1]; spleen, 50 mg/kg i.p. daily from day 5, 50 mg/kg) | immune suppressive T-regulatory cells ([1]; tumor vs blood, marrow, spleen, 50 mg/kg i.p. daily) | monocytic MDSCs (M-MDSCs) in the tumor ([1]; 50 mg/kg) | M-MDSC generation (M-MDSCs) | secretion of MCP-1 (CCL2) (GL261) | suppressive abilities of MDSCs on T-cell proliferation (MDSCs) | serum MCP-1 level (MCP-1) | CCR2 mRNA expression [2] | CD74 mRNA expression [2] | MCP-1 (CCL2) mRNA expression [2] | MIF mRNA expression [2] | myeloid genes mRNA expression [2] | CNS distribution / penetration [3] | CNS distribution / penetration ([3]; listed as Ibudilast) | survival versus vehicle [4]
1 | CC(N)C(=O)c1c(C(C)C)nn2ccccc12 (centres unmarked) [AV1013] | no significant suppression | – | – | – | – | – | – | – | – | – | – | – | – | – | – | – | – | – | – | –
2 | CC(C)C(=O)c1c(C(C)C)nn2ccccc12 [ibudilast, 3-isobutyryl-2-isopropylpyrazolo(1,5-a)pyridine] | – | decreased | increased | not altered; also recorded: not M-MDSCs associated with blood, spleen or bone marrow | not altered; also recorded: not M-MDSCs associated with blood, spleen or bone marrow | not altered; also recorded: not M-MDSCs associated with blood, spleen or bone marrow | reduced only in the tumors | reduced; also recorded: reduces M-MDSCs associated with tumor | ability to reduce M-MDSC generation | reduced GLP261 secretion MCP-1 (CCL2) in a dose-dependent manner; also recorded: reduced GL261 secretion of MCP-1(ccl2) in a dose dependent manner | effectively reduced the suppressive abilities of MDSCs | reduction | significantly reduced | significantly reduced | significantly reduced | not reduced | Overall reductions | good CNS penetration | distributes well to the CNS | Significant survival advantages
